Laboratory results as given in ChEMBL document CHEMBL1149467, “From genome to drug lead: identification of a small-molecule inhibitor of the SARS virus” (Bioorg Med Chem Lett, 2006).
pEC50: −log10 of the molar value.

Experiments:
SARS-CoV [1] = assay: Inhibition of human SARS-CoV Toronto-2 at 300 uM in a cell based assay; type: functional; settings: Severe acute respiratory syndrome-related coronavirus
SARS-CoV [2] = assay: Inhibition of human SARS-CoV Toronto-2 in a cell based assay; type: functional, organism-based; settings: Severe acute respiratory syndrome-related coronavirus

Structure (SMILES)	inhibition at 300 µM (SARS-CoV [1]) [%]	pEC50 (SARS-CoV [2])
O=C(O)c1ccc(NC(=O)c2cccc3c2C2=C(CCCC2)C3=O)cc1	25	–
O=C(O)c1ccc(/N=C/c2c(O)ccc3oc4c(c23)CCCC4)cc1	–	4.64
